Consider 8 molecules from patent US20140005188A1, “PYRIDO[3,4-B]PYRAZINE DERIVATIVES AS SYK INHIBITORS” (GLAXO GROUP LIMITED, priority 2011, published 2014).

For one series, the target named is T1, SYK (Homo sapiens, UniProt P43405).
T1 construct: The cell pellet was then lysed in ice-cold lysis buffer containing 1% triton-x-100; endogenous in cells; host or cells: Ramos B cells (human Burkitt's lymphoma, clone 296.4C10, ATCC), stimulated with anti-IgM antibody, clarified Triton X-100 lysate
The series can be described thus: biochemical. The note with it: SYK lysate from anti-IgM stimulated Ramos B cells, Y7 Sox peptide 5 μM, ATP 35 μM; read-out: average plC50. As to the method: 1. Basic SYK Enzyme Activity
3 μl of SYK lysate diluted 16-fold in assay buffer (20 mM TRIS pH 7.4, 0.01% BSA, 0.1% Pluronic F-68) was added to wells containing 0.1 μl of various concentrations of compound or DMSO vehicle (1.7% final) in a Greiner low volume 384 well black plate. […]
i. Preparation of Ramos Cell Lysates
Cells were grown in Corning Cellstacks (6360 cm^2) in 1 litre volume and viability and cell density were monitored daily. Cells were maintained at <1.5×10e6/ml and >92% viability ii. Stimulation of Ramos Cells with Anti-IgM Ab to Produce Syk & Preparation of Lysates Cells were stimulated at 20×10^6 cells/ml using 15 ug/ml (final concentration) anti-IgM antibody. Following harvest (as described above), a total of 4×10^9 cells were resuspended in 180 mls pre-warmed (37° C.) DPBS in a Corning 500 ml centrifuge bottle. 20 mls anti-IgM antibody at 150 ug/ml were added to each 500 ml centrifuge bottle. (working stock made up in DPBS pre-warmed to 37° C.). Cells were incubated for exactly 5 minutes at 37° C. following the addition of anti IgM antibody. Following 5 minutes stimulation, 300 mls ice-cold DPBS were added to each bottle to stop the stimulation (temperature drops to ˜12 deg C.) then cells were centrifuged at 2000 rpm (Sorvall Legend RT+centrifuge—pre-chilled to 4 deg C.). Cells were washed by resuspension in ice-cold DPBS and centrifugation as above. The cell pellet was then lysed in ice-cold lysis buffer containing 1% triton-x-100 at a ratio of 150 ul/1×10^7 cells (i.e. […] lysis buffer). Following the addition of lysis buffer, the cells were pipetted up & down & kept on ice for 15 minutes. The clarified lysate was then obtained by centrifugation (Sorvall Evolution RC (SLA-1500 rotor, ˜20,000 g (˜14,500 rpm), 45 min, 4° C.).
Lysate was aliquoted, snap-frozen on dry-ice & stored at −80° C. prior to assay.

For series [1] the following is noted: cited from earlier work.
The next series concerns B lymphoma (BKS-2). The note with it: murine BKS-2 B lymphoma model; cited from earlier work.

Structures are written as SMILES. Counter-ions that a name gives are not always drawn.

For `CC1CCC(CNc2nc(-c3cnn(C)c3)cc3nccnc23)CN1` (single isomer, unassigned) [Example 176, 7-(1-methyl-1H-pyrazol-4-yl)-N-[(6-methylpiperidin-3-yl)methyl]pyrido[3,4-b]pyrazin-5-amine hydrochloride, single unknown enantiomer], the IC50 at SYK was no more than 10 µM.
In the case of `O=C1CN(c2cc3nccnc3c(NC[C@H]3CCCNC3)n2)CCN1` [Example 30, 4-(5-{[(3S)-3-piperidinylmethyl]amino}pyrido[3,4-b]pyrazin-7-yl)-2-piperazinone, hydrochloride], on SYK, the IC50 is no more than 10 µM.
On to `Cn1nccc1-c1cc2nccnc2c(NC[C@@H]2CNCCO2)n1` [Example 92, 7-(1-methyl-1H-pyrazol-5-yl)-N-[(2S)-morpholin-2-ylmethyl]pyrido[3,4-b]pyrazin-5-amine hydrochloride], for which, on SYK, the IC50 is no more than 10 µM.
On the same count and under the same terms, under `COc1cncc(-c2cc3nccnc3c(NCC3(F)CCCNC3)n2)c1` (stereo not drawn) [Example 128, N-[(3-fluoropiperidin-3-yl)methyl]-7-(5-methoxypyridin-3-yl)pyrido[3,4-b]pyrazin-5-amine] stands no more than 10 µM; under `Cc1noc(C)c1-c1cc2nccnc2c(NCC2(F)CCCNC2)n1` (stereo not drawn) [Example 157, 7-(dimethyl-1,2-oxazol-4-yl)-N-[(3-fluoropiperidin-3-yl)methyl]pyrido[3,4-b]pyrazin-5-amine hydrochloride], no more than 10 µM; under `Fc1ccc(-c2cc3nccnc3c(NCC3(F)CCCNC3)n2)c(F)c1` (stereo not drawn) [Example 166, 7-(2,4-difluorophenyl)-N-[(3-fluoropiperidin-3-yl)methyl]pyrido[3,4-b]pyrazin-5-amine], no more than 10 µM.
In the case of `COc1cc(Nc2ncc(F)c(Nc3ccc4c(n3)N(COP(=O)(O)O)C(=O)C(C)(C)O4)n2)cc(OC)c1OC` [Example R788, fostamatinib disodium], the therapeutic benefit result in series [1] (patients with DLBCL and CLL/SLL) was “therapeutic benefit”. Further, the tolerability result in series [1] (patients with relapsed or refractory B-Cell NHL) is on record as “well-tolerated”.
In the case of `COc1cc(/C=C/C(=O)CC(=O)/C=C/c2ccc(O)c(OC)c2)ccc1O` [curcumin], the “tumour burden as measured by the total splenocyte number” value in the series with B lymphoma (BKS-2) is on record as “significant reduction”.
